Experiment [1] deals with T1, Estrogen receptor (Homo sapiens, UniProt P03372).
T1 sequence (P03372 whole entry): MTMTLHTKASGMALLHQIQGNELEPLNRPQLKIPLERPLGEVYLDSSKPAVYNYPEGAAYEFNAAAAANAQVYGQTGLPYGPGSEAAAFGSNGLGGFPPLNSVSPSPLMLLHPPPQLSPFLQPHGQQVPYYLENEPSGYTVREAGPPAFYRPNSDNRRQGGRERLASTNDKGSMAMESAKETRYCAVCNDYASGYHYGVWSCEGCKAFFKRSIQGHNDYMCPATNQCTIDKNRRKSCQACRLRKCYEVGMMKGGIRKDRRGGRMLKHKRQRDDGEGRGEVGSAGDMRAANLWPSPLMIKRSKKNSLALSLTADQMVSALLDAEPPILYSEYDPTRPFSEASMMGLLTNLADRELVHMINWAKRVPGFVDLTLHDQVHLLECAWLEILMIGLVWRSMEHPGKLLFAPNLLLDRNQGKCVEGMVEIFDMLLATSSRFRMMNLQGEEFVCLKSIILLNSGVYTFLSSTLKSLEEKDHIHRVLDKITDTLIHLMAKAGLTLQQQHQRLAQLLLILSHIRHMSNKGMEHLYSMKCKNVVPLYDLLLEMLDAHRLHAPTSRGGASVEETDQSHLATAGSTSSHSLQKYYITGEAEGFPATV
Description: Displacement of [3H]17-beta-estradiol from human estrogen receptor alpha

Experiment [2] relates to MCF7. Nature of the experiment: Inhibition of MCF-7 cell proliferation at 10000 nM. The format is functional, Homo sapiens.
Experiment [3] has as its system MCF7. Kind of experiment: Inhibition of MCF-7 cell proliferation at 10 nM. The format is functional, Homo sapiens.
The subject of experiment [4] is MCF7. Kind of experiment: Inhibition of MCF-7 cell proliferation at 100 nM. The format is functional, Homo sapiens.
In experiment [5] the test system is MCF7. Kind of experiment: Inhibition of estrogen-induced MCF-7 cell proliferation at 10000 nM. The format is functional, Homo sapiens.
The subject of experiment [6] is MCF7. Nature of the experiment: Inhibition of MCF-7 cell proliferation at 1000 nM. The format is functional, Homo sapiens.

Some results are limits rather than exact numbers.

The IC50 is the concentration at which inhibition is half-maximal. A lower IC50 goes with greater potency in that assay. Consider `CC/C(=C(/c1ccc(O)cc1)c1cccc(OCC(=O)O)c1)c1ccccc1`, for which the IC50 in experiment [1] is above 11 nM. The molecule also showed a Cell number in experiment [2] of 100%.
Take `O=C(O)CCCOc1ccc(/C(=C/CCc2ccccc2)c2ccc(O)cc2)cc1`: the Cell number in experiment [3] was 74%; in experiment [4], 25%; in experiment [5] it was 18%; in experiment [6], 20%. In addition, the midpoint of inhibition in experiment [1], the IC50, lay at 235 nM.
The molecule `CC/C(=C(\c1ccc(O)cc1)c1ccc(OCC(=O)O)cc1)c1ccccc1` had a half-maximal inhibitory concentration (IC50) in experiment [1] of 500 nM. Moreover, the Cell number in experiment [2] amounted to 102%; in experiment [6], 96%.
`CC/C(=C(/c1ccc(OCC(=O)O)cc1)c1cccc(O)c1)c1ccccc1`: the Cell number in experiment [3] is listed as 99%; in experiment [4], 82%; in experiment [2] it was 52%; in experiment [5], 78%. Inhibition in experiment [1] was half-maximal at 1440 nM (IC50).
As for `CC[C@](C)(c1ccccc1)[C@@H](c1ccc(O)cc1)c1ccc(OCCCC(=O)O)cc1`, the values for the Cell number in experiment [4], in experiment [2] and in experiment [6] were 99%, 68% and 102%, respectively. For the same molecule, the midpoint of inhibition in experiment [1], the IC50, lay at 6000 nM.
On to `CC/C(=C(\c1ccccc1)c1ccc(OCCN(C)C)cc1)c1ccccc1` [TAMOXIFEN], for which the Cell number stood at 97% in experiment [3], 72% in experiment [4], 24% in experiment [2] and 31% in experiment [5].
Take `O=C(O)CCCOc1ccc(/C(=C/CCc2ccccc2)c2cccc(O)c2)cc1`: the Cell number was found to be 89% in experiment [3], 91% in experiment [4], 19% in experiment [2] and 50% in experiment [5]. In experiment [1], this molecule displayed an IC50 of 1700 nM.

Source of the values: ChEMBL document CHEMBL1132343, “Carboxylic acid analogues of tamoxifen: (Z)-2-[p-(1, 2-diphenyl-1-butenyl)phenoxy]-N,N-dimethylethylamine. Estrogen receptor affinity and estrogen antagonist effects in MCF-7 cells” (J Med Chem, 1999).
